Reference: patent publication US7709645B2, “Pyrrolo-pyridine kinase modulators” (SGX Pharmaceuticals, Inc., priority 2004, dated 2010)

Target: T1, MET kinase (Homo sapiens, UniProt P08581)
T1 construct: Sf9 insect cell culture expressing the kinase domain of human Met; 6x Histidine tag (TEV-cleavable) (cleaved yes); made in house; host or cells: Sf9 insect cells
Assay: Met Bioassay (luminescence-based enzyme assay, Kinase-Glo)
Format: biochemical
Conditions: 10 μM ATP
Text: In addition to the c-Abl PK/LDH coupled assay (above), homogeneous luminescence-based inhibitor screening assays were developed for c-Abl, MET, AurA, and PDK1 kinases (among others). Each of these assays made use of an ATP depletion assay (Kinase-Glo™, Promega Corporation, Madison, Wis.) to quantitate kinase activity. The Kinase-Glo™ format uses a thermostable luciferase to generate luminescent signal from ATP remaining in solution following the kinase reaction. The luminescent signal is inversely correlated with the amount of kinase activity.
Materials: Poly Glu-Tyr (4:1) substrate (Sigma Cat# P-0275), ATP (Sigma Cat#A-3377, FW=551), HEPES buffer, pH 7.5, Bovine serum albumin (BSA) (Roche 92423420), MgCl2, Staurosporine (Streptomyces sp. Sigma Cat#85660-1MG), white Costar 384-well flat-bottom plate (VWR Cat#29444-088). MET kinase (see below), Kinase-Glo™ (Promega Cat#V6712).
Stock Solutions: 10 mg/ml poly Glu-Tyr in water, stored at −20° C.; 100 mM HEPES buffer, pH 7.5 (5 ml 1M stock+45 ml miliQH2O); 10 mM ATP (5.51 mg/ml in dH2O) stored at −20° C. (diluted 50 μl into total of 10 ml miliQH2O daily=50 μM ATP working stock); 1% BSA (1 g BSA in 100 ml 0.1M HEPES, pH 7.5, stored at −20° C.), 100 mM MgCl2; 200 μM Staurosporine, 2× Kinase-Glo™ reagent (made fresh or stored at −20° C.).
Standard Assay Setup for 384-well format (20 μl kinase reaction, 40 μl detection reaction): 10 mM MgCl2; 0.3 mg/ml poly Glu-Tyr; 0.1% BSA; 1 μl test compound (in DMSO); 0.4 μg/ml MET kinase; 10 μM ATP; 100 mM HEPES buffer. Positive controls contained DMSO with no test compound. Negative controls contained 10 μM staurosporine. The kinase reactions were initiated at time t=0 by the addition of ATP. Kinase reactions were incubated at 21° C. for 60 min, then 20 μl of Kinase-Glo™ reagent were added to each well to quench the kinase reaction and initiate the luminescence reaction. After a 20 min incubation at 21° C., the luminescence was detected in a plate-reading luminometer.
The cell pellets produced from half of a 12 L Sf9 insect cell culture expressing the kinase domain of human Met were resuspended in a buffer containing 50 mM Tris-HCl pH 7.7 and 250 mM NaCl, in a volume of approximately 40 ml per 1 L of original culture. One tablet of Roche Complete, EDTA-free protease inhibitor cocktail (Cat# 1873580) was added per 1 L of original culture. The suspension was stirred for 1 hour at 4° C. Debris was removed by centrifugation for 30 minutes at 39,800×g at 4° C. The supernatant was decanted into a 500 ml beaker and 10 ml of 50% slurry of Qiagen Ni-NTA Agarose (Cat# 30250) that had been pre-equilibrated in 50 mM Tris-HCl pH 7.8, 50 mM NaCl, 10% Glycerol, 10 mM Imidazole, and 10 mM Methionine, were added and stirred for 30 minutes at 4° C. The sample was then poured into a drip column at 4° C. and washed with 10 column volumes of 50 mM Tris-HCl pH 7.8, 500 mM NaCl, 10% Glycerol, 10 mM Imidazole, and 10 mM Methionine. The protein was eluted using a step gradient with two column volumes each of the same buffer containing 50 mM, 200 mM, and 500 mM Imidazole, sequentially. The 6× Histidine tag was cleaved overnight using 40 units of TEV protease (Invitrogen Cat#10127017) per 1 mg of protein while dialyzing in 50 mM Tris-HCl pH 7.8, 500 mM NaCl, 10% Glycerol, 10 mM Imidazole, and 10 mM Methionine at 4° C. The 6× Histidine tag was removed by passing the sample over a Pharmacia 5 ml IMAC column (Cat# 17-0409-01) charged with Nickel and equilibrated in 50 mM Tris-HCl pH 7.8, 500 mM NaCl, 10% Glycerol, 10 mM Imidazole, and 10 mM Methionine. The cleaved protein bound to the Nickel column at a low affinity and was eluted with a step gradient. The step gradient was run with 15% and then 80% of the B-side (A-side=50 mM Tris-HCl pH 7.8, 500 mM NaCl, 10% Glycerol, 10 mM Imidazole, and 10 mM Methionine; B-side=50 mM Tris-HCl pH 7.8, 500 mM NaCl, 10% Glycerol, 500 mM Imidazole, and 10 mM Methionine) for 4 column volumes each. […]

T1 sequence (P08581 1078-1345 limits assumed): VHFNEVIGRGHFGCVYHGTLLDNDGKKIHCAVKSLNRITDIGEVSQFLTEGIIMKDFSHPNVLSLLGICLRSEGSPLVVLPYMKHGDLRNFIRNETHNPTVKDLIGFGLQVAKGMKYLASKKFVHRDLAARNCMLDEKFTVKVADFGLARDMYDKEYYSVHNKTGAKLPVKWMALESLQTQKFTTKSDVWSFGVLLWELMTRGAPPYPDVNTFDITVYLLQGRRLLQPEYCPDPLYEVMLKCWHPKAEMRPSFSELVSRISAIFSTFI

Row | IC50 [nM] | SMILES
1 | < 1000 | COc1ccc(-c2cnc3[nH]cc(-c4ccc(N)nc4)c3c2)cc1OC [AE56]
2 | 1000 to 5000 | COCCNc1ccc(-c2c[nH]c3ncc(-c4ccc(OC)c(OC)c4)cc23)cn1 [AE57]
